The values below come from US11439628B2, “Use of non-steroidal mineralocorticoid receptor antagonists alone or in combination for the treatment of muscular or neuromuscular diseases” (Bayer Aktiengesellschaft, priority 2018, dated 2022).

Each structure is given as a SMILES string.

Data set [1] relates to MDX-mice. The data set is described as follows: EDL eccentric contractions (ex vivo contractility of isolated muscle from treated mice). It is filed as in vivo. As to conditions: for Ecc2 (% Ecc1) / Ecc5 (% Ecc1) / Post-rest Ecc6 (% Ecc1): EDL of MDX-mice treated 16 weeks via chow (150 ppm BAY 41-2272 or 100 ppm Finerenone), Mean ± SEM; for Ecc2 (% Ecc1): 2nd eccentric contraction; for Ecc5 (% Ecc1): 5th eccentric contraction; for Post-rest Ecc6 (% Ecc1): 6th eccentric contraction after 15 minutes of rest; for Effect on muscle strength (EDL eccentric contractions), in words: MDX-mice treated 16 weeks. An excerpt: (§1) Preferentially mice were used, especially transgenic mice (B6.Cg-^Terctm1Rdp Dmd^mdx-4Cv/BlauJ; Jackson Laboratories, strain Nr.: 023535; Dystrophin-deficient, utrophin haplo-insufficient (utrn +/−; mdx)). These so called MDX mice carry a mutation in the dystrophin gene which reflects the phenotype and clinical situation of patients with muscular dystrophies (Sacco et al.; Cell. 2010 Dec. 23; 143(7):1059-71, Mourkioti et al. Nat Cell Biol. 2013 August; 15(8):895-904).
(§2) As read-outs were preferentially used: • In vitro, hydroxyproline measurement to assess fibrotic tissue. To analyze the collagen content in tissue samples, hydroxyproline assays were performed. After digestion of the tissue (e.g. heart and muscle) in 6M HCl for three hours at 120° C., chloramine T (0.06 M) was added and samples were mixed and incubated for 20 min at room temperature. 3.15 M perchloric acid and 20% p-dimethylaminobenzaldehyde were added and samples were incubated for additional 20 min at 60° C. The absorbance was determined at 557 nm. • In vitro, semiquantitative RT/PCR (TaqMan PCR) was used to assess gene expression. Mice were euthanized and hearts and muscles (e.g. EDL=extensor digitorum longus muscle, diaphragm) were collected. Total RNA was isolated and gene expression was semiquantified after reverse transcription (RT) reaction via TaqMan polymerase chain reaction (PCR). • In vitro, histopathology to assess heart and muscle damage. Mice were euthanized and hearts and muscles (e.g. EDL, diaphragm) were collected. Cryosections were prepared and stained with Hematoxylin and Eosin (H&E) to assess overall histopathology. • Ex vivo, contractility measurements of muscle contraction in isolated muscles (e.g. EDL, diaphragm) to assess muscle function and contractility. Isolated muscles were stretched to optimal length using twitch contractions (evoked by a single 4 ms pulse). After 10 minutes, a tetanus contraction was performed (150 Hz for 250 ms). After another 5 min rest period, 6 eccentric contractions (150 Hz for 450 ms, subjected to a 3% stretch for the final 200 ms of contraction) were done with two minutes of rest between the first 5 stimulations and 15 minutes of rest between the fifth and sixth stimulation. • In vivo, non-invasive echocardiography and computer tomography to assess heart and cardiovascular function. Mice were anaesthetized and heart structure and function was assessed non-invasively by using the echocardiograph type Vevo2100. In addition, cardiac function was investigated in anesthetized mice by using magnetic resonance imaging (MRI) technique on a 9.4 or 11.7 Tesla 30 mm bore system (Bruker Biospin) together with standard electrocardiographic (ECG). Myocardial strain and strain rate were assessed using vector-based tracking software (Vector Velocity Imaging, Siemens). • In vivo, invasive left-ventricular function and pressure-volume relationship to assess heart and cardiovascular function. Invasive left-ventricular hemodynamics were performed in anaesthetized mice using a pressure catheter and a PN loop catheter. • In vivo assessment of muscle force (Hanging wire test, four limb hanging test, grip strength test) to asses muscle function. For the hanging wire and four limb hanging test, conscious mice are freely hanging on a grid and hanging time is recorded and corrected for body weight of the mice. The grip strength (GS) measurements to investigate front-leg muscle strength were performed in conscious mice by using a grip strength meter (Columbus Instruments). Mice were trained to hold on with their front paws on a wire mesh grid and carefully pulled backwards. This procedure was repeated up to 5 times with one minute breaks between measurements and the maximal power in Newton (N) was registered. The highest grid strength value (GS) in Newton was reported and related to body weight (BW) in mg. […] (Table 1). • In vivo assessment of physical capacity was assessed. […]

In data set [2] the test system is MDX-mice. The data set is described as follows: Grip strength test (front-leg muscle strength) in MDX mice. It is filed as in vivo. As to conditions: for GS/BW trial 5 / GS/BW trial 1 / Grip Strength trial 1 / Grip Strength trial 5: MDX-mice treated 16 weeks via chow (150 ppm BAY 41-2272 or 100 ppm Finerenone), Mean ± SEM; for GS/BW trial 5 / GS/BW trial 1: grip strength related to body weight; for GS/BW trial 5: fatigued mice; for GS/BW trial 1: rested mice; for Grip Strength trial 1: highest force from rested mice; for Grip Strength trial 5: highest force in fatigued mice; for Effect on muscle strength (grip strength), in words: MDX-mice treated 16 weeks, each compound alone; for Efficacy of monotherapy compared with combination of steroidal MR antagonist (spironolactone) and ACE inhibitor (lisinopril): regarding grip strength, base myocardial strain rate and forces after lengthening contractions of the EDL, comparator from Lowe et al.
From the text: as §1, §2

The conditions of data set [3]: rats, [14C]-labeled; Kolkhof et al. 2014; cited from earlier work.
The test system of data set [4] is MDX-mice. The data set is described as follows: Endocardial circumferential peak systolic strain rate at the base of the heart (MRI, vector-based tracking). As to conditions: for Effect on heart function (systolic strain rate), in words: MDX-mice treated 16 weeks; for Base_PeakSysSR_Lat (endocardial circumferential S−1) / Base_PeakSysSR_Mean (endocardial circumferential S−1) / Base_PeakSysSR_Septum (endocardial circumferential S−1): MDX-mice treated 16 weeks via chow (150 ppm BAY 41-2272 or 100 ppm Finerenone), base of the heart, Mean ± SEM; for Base_PeakSysSR_Lat (endocardial circumferential S−1): lateral; for Base_PeakSysSR_Mean (endocardial circumferential S−1): mean; for Base_PeakSysSR_Septum (endocardial circumferential S−1): septum. It is filed as in vivo.
From the text: as §1, §2

A further data set relates to DMD boys. The conditions noted are these: added to background ACE inhibitor or ARB therapy; at 12 months; Raman et al. 2015; cited from earlier work.

With `CCOc1ncc(C)c2c1[C@H](c1ccc(C#N)cc1OC)C(C(N)=O)=C(C)N2` [Finerenone, (S)-4-(4-Cyano-2-methoxyphenyl)-5-ethoxy-2,8-dimethyl-1,4-dihydro-1,6-naphthyridin-3-carboxamid], in the data set on MDX-mice [1], the “Ecc2 (% Ecc1)” value is reported as 94 ± 5 % Ecc1; the “Ecc5 (% Ecc1)” value was 71 ± 7 % Ecc1; the “Post-rest Ecc6 (% Ecc1)” value worked out at 72 ± 6 % Ecc1; the “Effect on muscle strength (EDL eccentric contractions), in words” value is “improvement of muscle strength”. In addition, in the data set with MDX-mice [2], the GS/BW trial 5 was determined as 37.5 ± 1.1 mN/g, the GS/BW trial 1 was determined as 40.3 ± 1 mN/g, the “Grip Strength trial 1” value came out at 1.1 ± 0.04 N and the “Grip Strength trial 5” value is given as 1.1 ± 0.04 N. Also, in the data set with MDX-mice [2], the “Effect on muscle strength (grip strength), in words” value was “improvement of muscle strength”; the “Efficacy of monotherapy compared with combination of steroidal MR antagonist (spironolactone) and ACE inhibitor (lisinopril)” value is reported as “superior”. In addition, the “Efficacy of monotherapy compared with combination of steroidal MR antagonist (spironolactone) and ACE inhibitor (lisinopril)” value in the data set with MDX-mice [2] (listed as (S)-4-(4-Cyano-2-methoxyphenyl)-5-ethoxy-2,8-dimethyl-1,4-dihydro-1,6-naphthyrid) was “as effective as”. Moreover, the “Tissue distribution into cardiac and kidney tissues” value in data set [3] is “balanced distribution”. Besides, in the data set on MDX-mice [4], the “Effect on heart function (systolic strain rate), in words” value is given as “attenuation of heart function decline”; the “Base_PeakSysSR_Lat (endocardial circumferential S−1)” value was found to be 0.39 ± 0.04 S−1; the “Base_PeakSysSR_Mean (endocardial circumferential S−1)” value turned out to be 0.35 ± 0.03 S−1; the “Base_PeakSysSR_Septum (endocardial circumferential S−1)” value was found to be 0.34 ± 0.04 S−1.
In the case of `Nc1nc(-c2nn(Cc3ccccc3F)c3ncccc23)ncc1C1CC1` [BAY41-2272, 3-(4-amino-5-cyclopropylpyrimidin-2-yl)-1-(2-fluorobenzyl)-1H-pyrazolo[3,4-b]pyridine], in the data set with MDX-mice [1], the “Ecc2 (% Ecc1)” value was determined as 86 ± 2 % Ecc1; the “Ecc5 (% Ecc1)” value came out at 60 ± 5 % Ecc1; the “Post-rest Ecc6 (% Ecc1)” value is reported as 60 ± 5 % Ecc1; the “Effect on muscle strength (EDL eccentric contractions), in words” value was “improvement of muscle strength”. Moreover, in the data set on MDX-mice [2], the GS/BW trial 5 is 33.9 ± 0.9 mN/g, the GS/BW trial 1 was found to be 38.3 ± 1.1 mN/g, the “Grip Strength trial 1” value was 1.0 ± 0.04 N and the “Grip Strength trial 5” value was 0.9 ± 0.04 N. The “Effect on muscle strength (grip strength), in words” value in the data set with MDX-mice [2] is “improvement of muscle strength”. In the data set with MDX-mice [4], the “Effect on heart function (systolic strain rate), in words” value is “attenuation of heart function decline”; the “Base_PeakSysSR_Lat (endocardial circumferential S−1)” value was determined as 0.37 ± 0.02 S−1; the “Base_PeakSysSR_Mean (endocardial circumferential S−1)” value was found to be 0.36 ± 0.02 S−1; the “Base_PeakSysSR_Septum (endocardial circumferential S−1)” value amounted to 0.39 ± 0.03 S−1.
Turning to `COC(=O)[C@@H]1CC2=CC(=O)CC[C@]2(C)[C@@]23O[C@@H]2C[C@@]2(C)[C@@H](CC[C@@]24CCC(=O)O4)[C@H]13` [eplerenone], the “Effect on left ventricular systolic function (LV circumferential strain)” value in the data set with DMD boys is “attenuates the progressive decline in left ventricular systolic function”.
